Here are results for 2 compounds from article PMC10391911, “Differential effects of two phosphodiesterase 4 inhibitors against lipopolysaccharide-induced neuroinflammation in mice” (BMC Neuroscience, 2023).

Data set [1] in a line: In vitro protein-binding assay using equilibrium dialysis, brain homogenate. Format: in vitro ADME, mouse. The method, then: A rapid equilibrium dialysis device with inserts (cat no. #90,112, Thermo Fisher) was used for the protein-binding assay. […] The samples were incubated for 4 h in a shaking incubator (37℃, 300 rpm). After incubation, 50 µL buffer from the white chamber was added to 50 µL fresh mouse plasma or brain homogenate, and 50 µL dosing solution from the red chamber was added to 50 µL fresh buffer to adjust for matrix effects. To each sample, 200 µL ice-cold acetonitrile with internal standard was added. The samples were centrifuged at 4,000 rpm for 20 min and the supernatants were collected for LC-MS/MS analysis. The unbound fraction of drug (Fu) in plasma and brain tissue was calculated as follows based on previous studies: [drawing 3] [drawing 4]
where Cprotein-free compartment and Cprotein-containing compartment, D, and dh are the concentrations of drug in the buffer chamber and drug solution chamber, dilution factor, and diluted brain homogenate, respectively.
The values were calculated using the measured diluted free fractions and the respective dilution factor.

A further data set concerns PDE4B. The conditions noted are these: quoted in discussion without reference, cf. b4; read-out: PDE4B inhibitory concentration; cited from earlier work.
Data set [2] relates to TNF-α, IL-1β, and IL-6 levels and apoptotic neurons in the brain. The following applies: 3 mg/kg subcutaneous, following subarachnoid hemorrhage; cited from earlier work.
Data set [3] deals with PDE4As, PDE4Bs and PDE4Ds. The following applies: against PDE4As; cited from earlier work.
The test system of a further data set is memory. The conditions noted are these: rodents; cited from earlier work.
For data set [4] the following is noted: mice and rats; cited from earlier work.
A further data set deals with PDE4Cs. The following applies: against PDE4Cs; cited from earlier work.
A further data set relates to APP/PS1 mouse model. The following applies: 0.1, 0.2, and 0.4 mg/kg intragastrically for 3 weeks, APP/PS1 mice; cited from earlier work.
In data set [5] the test system is TNF-α, IL-1β, and IL-6 levels in plasma and brain. The data set can be described thus: In vivo LPS-induced neuroinflammation mouse model, cytokine ELISA. The conditions noted are these: 10 mg/kg orally once daily for 4 days, LPS 10 mg/kg i.p., samples 8 h after LPS. A general note: ELISA stands for enzyme-linked immunosorbent assay.
A further data set relates to BV-2 cells. It is filed as cell-based, murine. The conditions noted are these: 24 h exposure, tested up to 100 µM. The method, then: Cell viability was assessed using the WST-8 assay with Cyto X reagent (LPS Solution, Daejeon, Korea). BV-2 microglial cells were seeded at a density of 5 × 10^5 cells/mL in 96-well plates. […] Finally, Cyto X solution was loaded in each well and incubated for 20 min.

The test system of another data set is brain cAMP levels. Also on record: method as in PMID 28772081, PMID 33363155. The conditions noted are these: cited from earlier work.
A further data set deals with PDE4D3. Further details: method as in PMID 33363155. The following applies: against PDE4D3; cited from earlier work.
Another data set has as its system PDE4D7. Further details: method as in PMID 33363155. The following applies: against PDE4D7; cited from earlier work.

Where two headings read alike, the source gives them in different places. Where only a bound is given, the exact number is not on record here.

In turn, `O=C(Nc1c(Cl)cncc1Cl)c1ccc(OC(F)F)c(OCC2CC2)c1` [roflumilast] showed a fraction unbound at 4 h, 5 µM in [1] (mouse, brain homogenate) of […]. The IC50 with PDE4B was […]; in data set [3] it was […]; in the data set on PDE4Cs it was […]. In data set [2], the “TNF-α, IL-1β, and IL-6 levels and number of apoptotic neurons in the brain” value is listed as “decreased”. In addition, in the data set with memory, the “Effect on memory in object-location task and spatial Y-maze” value is reported as “enhanced memory”. Moreover, in data set [4], the “Calculated oral emetic dosages” value was […]. Also, the “Performance in Morris water maze, novel object recognition, and passive avoidance tasks” value in the data set on APP/PS1 mouse model is “restored performance”. The “Effect on TNF-α, IL-1β, and IL-6 levels in plasma and brain” value in [5] is on record as “reduced”.

With `O=C(O)Cc1ccc(Cc2cc(-c3cccc(Cl)c3)nc(C(F)(F)F)c2)cc1` [zatolmilast], in data set [1] (mouse blank brain homogenate, 5 µM, mouse brain homogenate, 4 h dialysis, read-out: Fu, Brain), the fraction unbound at 4 h, 5 µM is 0.0014 ± 0.0002. Further, in the data set with BV-2 cells, the Nontoxic concentrations is listed as […]. The “Effect on brain cAMP levels” value with brain cAMP levels is given as “increases brain cAMP levels”. The IC50 with PDE4D3 is 7.4 nM; in the data set with PDE4D7 it was […]. In addition, in data set [5], the “Effect on TNF-α, IL-1β, and IL-6 levels in plasma and brain” value was “did not reduce”.
